Data: paper PMC6028453, “BrlR from Pseudomonas aeruginosa is a receptor for both cyclic di-GMP and pyocyanin” (Nature Communications, 2018)

Key:
[1] = target: T1, BrlR mutant D35A (Pseudomonas aeruginosa, UniProt Q9HUT5, D35A); experiment: FP binding assay, BrlR D35A
T1 construct: His6-SUMO (N, cleaved yes); made in house; host or cells: E. coli BL21 DE3
Protocol: (§1) F-c-di-GMP and F-c-di-AMP both contain a fluorophore at one of the 2′-ribose hydroxyls of c-di-GMP and c-di-AMP, respectively (Fig. 2f). To measure the binding of c-di-GMP and c-di-AMP to BrlR variants, 1 nM F-c-di-GMP or F-c-di-AMP was incubated with increasing amounts of indicated BrlR WT, BrlR mutation, or BrlR-C in reaction buffer (25 mM HEPES, 100 mM NaCl, pH 7.5) at 25 °C for 20 min. 1 nM fluorescein was incubated with BrlR WT in the same reaction buffer at 25 °C. FP measurements were conducted on a Synergy 4 Microplate Reader (BioTek) at 25 °C. All experiments were performed in triplicate. The curves were fitted to deduce binding affinities by GraphPad Prism 5.
(§2) BrlR–c-di-GMPs interactions in two separate c-di-GMP binding sites
(§3) In the first binding site, c-di-GMP is half accommodated by the antiparallel β-sheet and two residues (M1 and D35). In detail, the backbone amide protons of the first M1 residue form a hydrogen bond (H-bond) with the phosphate oxygen atom of c-di-GMP, and the side chain of R31 forms two H-bonds with the Gua1 base. The residue D35 also forms an H-bond with the Gua1 base. The aromatic ring of Y40 interacts with the Gua1 base through a hydrophobic π-π interaction. In addition, the hydroxyl group of the Y270 side chain from another subunit interacts with the phosphate 2 of c-di-GMP via an H-bond (Fig. 2d). […]

[2] = target: T2, BrlR mutant Y270A (Pseudomonas aeruginosa, UniProt Q9HUT5, Y270A); experiment: FP binding assay, BrlR Y270A
T2 construct: His6-SUMO (N, cleaved yes); made in house; host or cells: E. coli BL21 DE3
Protocol: as §1, §2, §3

[3] = target: T3, BrlR mutant R86A (Pseudomonas aeruginosa, UniProt Q9HUT5, R86A); experiment: FP binding assay, BrlR R86A
T3 construct: His6-SUMO (N, cleaved yes); made in house; host or cells: E. coli BL21 DE3
Protocol: as §1, §2, §3

[4] = target: T4, BrlR (Pseudomonas aeruginosa, UniProt Q9HUT5); experiment: Surface plasmon resonance (SPR) analysis; assay type: binding; conditions: SPR, first submitted version of the manuscript (quoted by reviewer); authors later call it a very weak artificial affinity
T4 construct: His6-SUMO (N, cleaved yes); made in house; host or cells: E. coli BL21 DE3
Protocol: The binding affinity of diverse toxic compounds for BrlR were investigated by SPR using a BIAcore-T200 apparatus (GE Healthcare). The ligand, BrlR (20 μM in 10 mM sodium acetate, pH 4.5), was immobilized on an activated CM5 sensor chip by amine coupling (BIAcore) with 4400 response units (RU), and the unreacted sites were blocked with 1.0 M ethanolamine–HCl (pH 8.5). Steady-state binding analysis was performed with injections of different molecules at different concentrations over the immobilized BrlR surface at a flow rate of 20 μL min^−1 at 25 °C. Association was measured for 180 s, followed by 120 s of dissociation in running buffer (20 mM Hepes pH 7.5, 150 mM NaCl). The sensorgrams for specific interactions were obtained by subtracting the reference unimmobilized flow cell response from that of the sample. Since BrlR only has one binding site for pyocyanin or other toxic compounds (Fig. 5a–f), the kinetic analysis of the sensorgrams from analyte interaction with the immobilized BrlR was performed by fitting the binding curves to a 1:1 binding model. To determine the steady state KD values, equilibrium responses were plotted against analyte concentrations, and the resulting curves were fitted to the steady state model in the BIAevaluation software package, version 3.0 (GE Healthcare).

[5] = target: T5, BrlR R86A DNA binding (Pseudomonas aeruginosa, UniProt Q9HUT5, R86A); experiment: EMSA, BrlR R86A; assay type: biochemical
T5 construct: His6-SUMO (N, cleaved yes); made in house; host or cells: E. coli BL21 DE3
Protocol: (§4) A 6-carboxy-fluorescein (FAM)-labeled 36-bp brlR promoter DNA (PbrlR) or 80-bp mexA/mexE promoter DNA (PmexA/PmexE) probes (~0.375 pmol), BrlR protein and varying amounts of inducers were incubated in binding buffer (10 mM Tris HCl [pH 7.4], 50 mM KCl, 1 mM DTT, […] and 5 ng/mL poly [dI-dC]) for 60 min at 25 °C. Finally, glycerol was added to a concentration of 6.5%. The samples were subjected to a 5% polyacrylamide gel electrophoresis and run in 0.5 × Tris-borate-EDTA buffer at 80 V for 1 h at room temperature. Imaging and data analyses were performed using a Typhoon Scanner (GE Healthcare) and Imagequant software. The probes used are listed in Supplementary Table 1.

[6] = target: T6, BrlR Y40A DNA binding (Pseudomonas aeruginosa, UniProt Q9HUT5, Y40A); experiment: EMSA, BrlR Y40A; assay type: biochemical
T6 construct: His6-SUMO (N, cleaved yes); made in house; host or cells: E. coli BL21 DE3
Protocol: as §4

[7] = target: T7, BrlR Y270A DNA binding (Pseudomonas aeruginosa, UniProt Q9HUT5, Y270A); experiment: EMSA, BrlR Y270A; assay type: biochemical
T7 construct: His6-SUMO (N, cleaved yes); made in house; host or cells: E. coli BL21 DE3
Protocol: as §4

T3 sequence (Q9HUT5 whole entry R86A): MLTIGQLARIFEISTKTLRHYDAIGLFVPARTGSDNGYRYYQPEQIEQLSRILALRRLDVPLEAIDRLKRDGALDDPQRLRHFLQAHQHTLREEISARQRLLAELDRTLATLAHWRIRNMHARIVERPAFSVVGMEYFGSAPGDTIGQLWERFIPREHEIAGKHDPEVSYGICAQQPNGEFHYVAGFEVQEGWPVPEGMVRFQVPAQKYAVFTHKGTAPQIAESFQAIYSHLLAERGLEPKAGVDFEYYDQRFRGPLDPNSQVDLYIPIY
T5 sequence (Q9HUT5 whole entry R86A): as above
T6 sequence (Q9HUT5 whole entry Y40A): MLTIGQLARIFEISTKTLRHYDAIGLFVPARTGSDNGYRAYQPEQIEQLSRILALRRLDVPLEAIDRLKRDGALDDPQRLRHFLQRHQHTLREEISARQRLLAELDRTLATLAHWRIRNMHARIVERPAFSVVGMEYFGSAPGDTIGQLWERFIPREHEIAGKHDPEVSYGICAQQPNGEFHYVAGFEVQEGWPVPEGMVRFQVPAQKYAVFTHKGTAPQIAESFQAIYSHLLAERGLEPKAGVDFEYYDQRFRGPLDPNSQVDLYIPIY
T7 sequence (Q9HUT5 whole entry Y270A): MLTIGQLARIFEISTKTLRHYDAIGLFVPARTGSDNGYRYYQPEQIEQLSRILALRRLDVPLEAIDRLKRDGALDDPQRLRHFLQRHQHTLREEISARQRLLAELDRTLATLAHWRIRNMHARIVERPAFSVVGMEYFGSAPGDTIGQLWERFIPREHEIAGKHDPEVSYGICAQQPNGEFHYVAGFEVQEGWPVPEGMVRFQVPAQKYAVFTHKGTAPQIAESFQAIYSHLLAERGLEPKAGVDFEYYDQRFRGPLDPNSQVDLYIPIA
T2 sequence (Q9HUT5 whole entry Y270A): as above
T1 sequence (Q9HUT5 whole entry D35A): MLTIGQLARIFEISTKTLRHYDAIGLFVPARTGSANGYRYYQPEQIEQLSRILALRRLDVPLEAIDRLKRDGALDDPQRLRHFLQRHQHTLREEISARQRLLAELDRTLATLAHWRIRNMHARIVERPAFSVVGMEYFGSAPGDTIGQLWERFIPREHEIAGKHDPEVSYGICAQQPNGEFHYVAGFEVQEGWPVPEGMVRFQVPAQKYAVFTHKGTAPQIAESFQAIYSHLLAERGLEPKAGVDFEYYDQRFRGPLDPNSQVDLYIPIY
T4 sequence (Q9HUT5 whole entry): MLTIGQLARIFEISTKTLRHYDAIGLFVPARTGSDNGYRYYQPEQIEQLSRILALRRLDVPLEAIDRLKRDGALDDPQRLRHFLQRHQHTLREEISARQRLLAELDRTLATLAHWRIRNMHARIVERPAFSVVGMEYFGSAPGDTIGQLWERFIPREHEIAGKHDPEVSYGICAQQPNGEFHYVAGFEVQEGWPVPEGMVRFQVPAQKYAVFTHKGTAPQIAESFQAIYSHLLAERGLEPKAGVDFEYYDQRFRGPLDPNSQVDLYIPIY

Nc1nc2c(ncn2[C@@H]2O[C@@H]3COP(=O)(O)O[C@H]4[C@@H](O)[C@H](n5cnc6c(=O)[nH]c(N)nc65)O[C@@H]4COP(=O)(O)O[C@H]3[C@H]2O)c(=O)[nH]1 [c-di-GMP, cyclic diguanylate monophosphate]
Kd [1]: 17.5 ± 0.9 µM
Kd [2]: 40.8 ± 3.8 µM
KD value (in words) [3]: like that of C2E mut2
Kd [4]: 2690 µM
DNA bound in the presence vs absence of c-di-GMP [5]: ~ 1.5 fold
DNA bound in the presence vs absence of c-di-GMP [6]: ~ 1.1 fold
DNA bound in the presence vs absence of c-di-GMP [7]: ~ 3.4 fold
